Results as given in US9512120B2, “Microbicidally active imidazopyridine derivatives” (Syngenta Participations AG, priority 2013, dated 2016).

Columns and labels:
[1] = system: Monographella nivalis (Microdochium nivale); assay: Monographella nivalis (Microdochium nivale) / liquid culture (foot rot cereals); format: cell-based; settings: PDB, 24° C., 4-5 days after application, read-out: control of Monographella nivalis (inhibition of growth, photometric)
Experimental: (§1) Monographella nivalis (Microdochium nivale)/Liquid Culture (Foot Rot Cereals): Conidia of the fungus from cryogenic storage were directly mixed into nutrient broth (PDB potato dextrose broth). After placing a DMSO solution of test compound into a 96-well microtiter plate at an application rate of 200 ppm, the nutrient broth containing the fungal spores was added. The test plates were incubated at 24° C. and the inhibition of growth was determined photometrically 4-5 days after application.

Gaeumannomyces graminis = Gaeumannomyces graminis / liquid culture (take-all of cereals); format: cell-based; settings: PDB, 24° C., 4-5 days after application, read-out: control of Gaeumannomyces graminis (inhibition of growth, photometric)
Experimental: Gaeumannomyces graminis/Liquid Culture (Take-all of Cereals): Mycelial fragments of the fungus from cryogenic storage were directly mixed into nutrient broth (PDB potato dextrose broth). After placing a DMSO solution of test compound into a 96-well microtiter plate at an application rate of 200 ppm, the nutrient broth […], containing the fungal spores is added. The test plates were incubated at 24° C. and the inhibition of growth was determined photometrically 4-5 days after application.

[2] = system: Mycosphaerella graminicola (Septoria tritici); assay: Mycosphaerella graminicola (Septoria tritici) / liquid culture (Septoria blotch); format: cell-based; settings: Zymoseptoria tritici, PDB, 24° C., 4-5 days after application, read-out: control of Mycosphaerella graminicola (inhibition of growth, photometric)
Experimental: as §1, with “Mycosphaerella graminicola (Septoria tritici)/Liquid” for “Monographella nivalis (Microdochium nivale)/Liquid”, “(Septoria Blotch):” for “(Foot Rot Cereals):”

[3] = system: Thanatephorus cucumeris (Rhizoctonia solani); assay: Thanatephorus cucumeris (Rhizoctonia solani) / liquid culture (foot rot, damping-off); format: cell-based; settings: PDB, 24° C., 3-4 days after application, read-out: control of Thanatephorus cucumeris (inhibition of growth, photometric)
Experimental: Thanatephorus cucumeris (Rhizoctonia solani)/Liquid Culture (Foot Rot, Damping-Off): Mycelia fragments of a newly grown liquid culture of the fungus are directly mixed into nutrient broth (PDB potato dextrose broth). After placing a DMSO solution of the test compounds into a 96-well microtiter plate at an application rate of 200 ppm, the nutrient broth containing the fungal material was added. The test plates were incubated at 24° C. and the inhibition of growth was determined photometrically 3-4 days after application.

[4] = system: Puccinia recondita f. sp. Tritici; assay: Puccinia recondita f. sp. tritici / wheat / leaf disc preventative (brown rust); format: in vivo; settings: foliar, wheat leaf segments cv Kanzler, inoculated 1 day after application, assessed 7-9 days after application, read-out: control of Puccinia recondita f. sp. Tritici (percent disease control compared to untreated)
Experimental: Puccinia recondita f. Sp. Tritici/Wheat/Leaf Disc Preventative (Brown Rust): Wheat leaf segments cultivated variety (cv) Kanzler were placed on agar in 24-well plates and sprayed with formulated test compound diluted in water at an application rate of 200 ppm. The leaf disks were inoculated with a spore suspension of the fungus 1 day after application. The inoculated leaf segments were incubated at 19° C. and 75% relative humidity under a light regime of 12/12 h (light/dark) in a climate cabinet and the activity of a compound was assessed as percent disease control compared to untreated when an appropriate level of disease damage appears in untreated check leaf segments (7-9 days after application).

[5] = system: Botryotinia fuckeliana (Botrytis cinerea); assay: Botryotinia fuckeliana (Botrytis cinerea) / liquid culture (gray mould); format: cell-based; settings: Vogels broth, 24° C., 3-4 days after application, read-out: control of Botryotinia fuckeliana (inhibition of growth, photometric)
Experimental: as §1, with “Botryotinia Fuckeliana (Botrytis cinerea)/Liquid” for “Monographella nivalis (Microdochium nivale)/Liquid”, “(Gray Mould):” for “(Foot Rot Cereals):”, “(Vogels” for “(PDB potato dextrose”, “3-4” for “4-5”

Pyrenophora teres = Pyrenophora teres / barley / leaf disc preventative (net blotch); format: in vivo; settings: foliar, barley leaf segments cv Hasso, inoculated two days after application, assessed 5-7 days after application, read-out: control of Pyrenophora teres (disease control compared to untreated)
Experimental: Pyrenophora Teres/Barley/Leaf Disc Preventative (Net Blotch): Barley leaf segments cv Hasso are placed on agar in a 24-well plate and sprayed with formulated test compound diluted in water at an application rate of 200 ppm. The leaf segments are inoculated with a spore suspension of the fungus two days after application of the test solution. The inoculated leaf segments are incubated at 20° C. and 65% relative humidity under a light regime of 12/12 h (light/dark) in a climate cabinet and the activity of a compound is assessed as disease control compared to untreated when an appropriate level of disease damage appears in untreated check leaf segments (5-7 days after application).

[6] = system: Glomerella lagenarium (Colletotrichum lagenarium); assay: Glomerella lagenarium (Colletotrichum lagenarium) / liquid culture (anthracnose); format: cell-based; settings: Colletotrichum orbiculare, PDB, 24° C., 3-4 days after application, read-out: control of Glomerella lagenarium (inhibition of growth, photometric)
Experimental: as §1, with “Glomerella lagenarium (Colletotrichum lagenarium)/Liquid” for “Monographella nivalis (Microdochium nivale)/Liquid”, “(Anthracnose):” for “(Foot Rot Cereals):”, “is measured” for “was determined”, “3-4” for “4-5”

CCn1c(-n2ncnc2N)nc2cncc(-c3ccc(F)cc3OC)c21 [Compound 95, 2-[1-ethyl-7-(4-fluoro-2-methoxyphenyl)imidazo[4,5-c]pyridin-2-yl]-1,2,4-triazol-3-amine]
≥ 80%: inhibition at 20 ppm [1] | inhibition at 20 ppm (Gaeumannomyces graminis) | inhibition at 20 ppm [2] | inhibition at 20 ppm [3] | pest or weed control at 200 ppm [4]

Nc1ncnn1-c1nc2cnccc2n1C1CC1 [Compound 1, 2-(1-cyclopropylimidazo[4,5-c]pyridin-2-yl)-1,2,4-triazol-3-amine]
≥ 80%: inhibition at 20 ppm (Gaeumannomyces graminis) | inhibition at 20 ppm [5] | inhibition at 20 ppm [2] | inhibition at 20 ppm [3] | pest or weed control at 200 ppm (Pyrenophora teres)

CCn1c(-n2ncnc2N)nc2cncc(-c3cccc(C)c3C)c21 [Compound 82, 2-[7-(2,3-dimethylphenyl)-1-ethylimidazo[4,5-c]pyridin-2-yl]-1,2,4-triazol-3-amine]
≥ 80%: inhibition at 20 ppm (Gaeumannomyces graminis) | inhibition at 20 ppm [5] | inhibition at 20 ppm [2] | inhibition at 20 ppm [3] | pest or weed control at 200 ppm [4] | pest or weed control at 200 ppm (Pyrenophora teres)

Nc1ncnn1-c1nc2cncc(-c3ccccc3F)c2n1C1CCCCC1 [Compound 127, 2-[1-cyclohexyl-7-(2-fluorophenyl)imidazo[4,5-c]pyridin-2-yl]-1,2,4-triazol-3-amine]
≥ 80%: inhibition at 20 ppm (Gaeumannomyces graminis)

CCn1c(-n2ncnc2N)nc2cncc(/C(C)=N/OCC=C(C)C)c21 [Compound 157]
≥ 80%: inhibition at 20 ppm [2] | inhibition at 20 ppm [3] | pest or weed control at 200 ppm [4] | inhibition at 20 ppm [6] | pest or weed control at 200 ppm (Pyrenophora teres)

CCn1c(-n2ncnc2N)nc2cncc(C#N)c21 [Compound 128, 2-(5-amino-1,2,4-triazol-1-yl)-1-ethylimidazo[4,5-c]pyridine-7-carbonitrile]
≥ 80%: inhibition at 20 ppm (Gaeumannomyces graminis) | inhibition at 20 ppm [3]

CCn1c(-n2ncnc2N)nc2cncc(-c3ccc(OC)nc3OC)c21 [Compound 56, 2-[7-(2,6-dimethoxypyridin-3-yl)-1-ethylimidazo[4,5-c]pyridin-2-yl]-1,2,4-triazol-3-amine]
≥ 80%: inhibition at 20 ppm [5] | inhibition at 20 ppm [2] | inhibition at 20 ppm [3] | pest or weed control at 200 ppm [4] | pest or weed control at 200 ppm (Pyrenophora teres)

CCCn1c(-n2ncnc2N)nc2cncc(/C(C)=N/OCC=C(C)C)c21 [Compound 189]
≥ 80%: inhibition at 20 ppm [1] | inhibition at 20 ppm [2] | inhibition at 20 ppm [3] | pest or weed control at 200 ppm [4]

CCCCCCO/N=C(\C)c1cncc2nc(-n3ncnc3N)n(CC)c12 [Compound 148]
≥ 80%: inhibition at 20 ppm [2] | inhibition at 20 ppm [3] | inhibition at 20 ppm [6] | pest or weed control at 200 ppm (Pyrenophora teres)

CCCn1c(-n2ncnc2N)nc2cncc(/C(C)=N/OC/C=C(\C)Cl)c21 [Compound 185]
≥ 80%: inhibition at 20 ppm [1] | inhibition at 20 ppm [5] | inhibition at 20 ppm [2] | inhibition at 20 ppm [3] | pest or weed control at 200 ppm (Pyrenophora teres)

CCn1c(-n2ncnc2N)nc2cncc(-c3cccc(Cl)c3Cl)c21 [Compound 87, 2-[7-(2,3-dichlorophenyl)-1-ethylimidazo[4,5-c]pyridin-2-yl]-1,2,4-triazol-3-amine]
≥ 80%: inhibition at 20 ppm [1] | inhibition at 20 ppm (Gaeumannomyces graminis) | inhibition at 20 ppm [5] | inhibition at 20 ppm [2] | inhibition at 20 ppm [3] | pest or weed control at 200 ppm [4] | pest or weed control at 200 ppm (Pyrenophora teres)

N#Cc1cncc2nc(-n3ncnc3N)n(C3CCCCC3)c12 [Compound 131, 2-(5-amino-1,2,4-triazol-1-yl)-1-cyclohexylimidazo[4,5-c]pyridine-7-carbonitrile]
≥ 80%: inhibition at 20 ppm [6]

C/C=C/CO/N=C(\C)c1cncc2nc(-n3ncnc3N)n(CC)c12 [Compound 177]
≥ 80%: inhibition at 20 ppm [1] | inhibition at 20 ppm [5] | inhibition at 20 ppm [2] | inhibition at 20 ppm [3]

CCn1c(-n2ncnc2N)nc2cncc(-c3ccc(-c4ccc(F)cc4)nc3)c21 [Compound 54, 2-[1-ethyl-7-[6-(4-fluorophenyl)pyridin-3-yl]imidazo[4,5-c]pyridin-2-yl]-1,2,4-triazol-3-amine]
≥ 80%: inhibition at 20 ppm [5] | inhibition at 20 ppm [2] | inhibition at 20 ppm [3] | pest or weed control at 200 ppm [4]

CCn1c(-n2ncnc2N)nc2cncc(-c3cccc(Cl)c3C)c21 [Compound 99, 2-[7-(3-chloro-2-methylphenyl)-1-ethylimidazo[4,5-c]pyridin-2-yl]-1,2,4-triazol-3-amine]
≥ 80%: inhibition at 20 ppm (Gaeumannomyces graminis) | inhibition at 20 ppm [5] | inhibition at 20 ppm [2] | inhibition at 20 ppm [3] | pest or weed control at 200 ppm [4] | pest or weed control at 200 ppm (Pyrenophora teres)

CCCn1c(-n2ncnc2N)nc2cncc(/C(C)=N/OCC=C(Cl)Cl)c21 [Compound 187]
≥ 80%: inhibition at 20 ppm (Gaeumannomyces graminis) | inhibition at 20 ppm [2] | inhibition at 20 ppm [3] | pest or weed control at 200 ppm [4]

CCCn1c(-n2ncnc2N)nc2cncc(/C(C)=N/OC/C=C/Cl)c21 [Compound 183]
≥ 80%: inhibition at 20 ppm [1] | inhibition at 20 ppm (Gaeumannomyces graminis) | inhibition at 20 ppm [5] | inhibition at 20 ppm [2] | inhibition at 20 ppm [3] | pest or weed control at 200 ppm [4] | pest or weed control at 200 ppm (Pyrenophora teres)

CCn1c(-n2ncnc2N)nc2cncc(-c3ccc(F)cc3C)c21 [Compound 92, 2-[1-ethyl-7-(4-fluoro-2-methylphenyl)imidazo[4,5-c]pyridin-2-yl]-1,2,4-triazol-3-amine]
≥ 80%: inhibition at 20 ppm (Gaeumannomyces graminis) | inhibition at 20 ppm [5] | inhibition at 20 ppm [2] | inhibition at 20 ppm [3] | pest or weed control at 200 ppm (Pyrenophora teres)

CCn1c(-n2ncnc2N)nc2cncc(-c3ccc(OC)cc3OC)c21 [Compound 81, 2-[7-(2,4-dimethoxyphenyl)-1-ethylimidazo[4,5-c]pyridin-2-yl]-1,2,4-triazol-3-amine]
≥ 80%: inhibition at 20 ppm [1] | inhibition at 20 ppm (Gaeumannomyces graminis) | inhibition at 20 ppm [5] | inhibition at 20 ppm [2] | inhibition at 20 ppm [3] | pest or weed control at 200 ppm [4] | pest or weed control at 200 ppm (Pyrenophora teres)

CCCn1c(-n2ncnc2N)nc2cncc(C#N)c21 [Compound 129, 2-(5-amino-1,2,4-triazol-1-yl)-1-propylimidazo[4,5-c]pyridine-7-carbonitrile]
≥ 80%: inhibition at 20 ppm [6]
